Measurements: paper PMC11500415, “Chemical inhibition of stomatal differentiation by perturbation of the master-regulatory bHLH heterodimer via an ACT-Like domain” (Nature Communications, 2024)
“And” between values parts separate entries of the source, which are not always exact repeats. Identical values can stand only once.

Key:
Assay in all cases: Y2H growth and quantitative α-galactosidase assay
Type in all cases: cell-based
SCRM-MUTE heterodimer = biological target: T1, SCRM-MUTE heterodimer (Arabidopsis thaliana, UniProt Q9M8K6); conditions: for a-galactosidase: yeast MUTE+SCRM, individual replicates, listed as AYSJ929
T1 construct: expressed in transfected cells; host or cells: yeast strain AH109
T1 sequence (Q9M8K6 1-202): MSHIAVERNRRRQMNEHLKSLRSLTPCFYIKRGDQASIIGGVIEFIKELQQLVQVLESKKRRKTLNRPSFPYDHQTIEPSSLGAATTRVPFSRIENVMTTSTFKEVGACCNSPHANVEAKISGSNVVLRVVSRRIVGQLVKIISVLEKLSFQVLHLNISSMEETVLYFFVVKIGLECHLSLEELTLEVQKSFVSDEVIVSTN
Method: (§1) Y2H assays were performed using the Matchmaker^TM Two-Hybrid System (Clontech). Bait (pGBKT7) and prey (pGADT7) constructs were co-transformed into the yeast strain AH109 using Frozen-EZ Yeast Transformation II Kit (Zymo Research, T2001). The resulting transformants were spotted on SD ( − Leu, −Trp) and SD ( − Trp, −Leu, −His) selection media containing different concentrations of 3-amino-1,2,4-triazole (Sigma, A8056) as previously reported. Quantitative α-galactosidase assay was also performed according to manufactural instruction (Clontech). Briefly, the transformants were incubated in 2 ml SD medium with 0, 10, 50 100 μM Stomidazolone (3) or SIM3* (7) with rotary shake (220 rpm) at 30 °C overnight. The cultured media containing yeast were transferred to microtubes and centrifuged to obtain the supernatant. The colorimetric assay was performed by incubating 8 μL of supernatant with 24 μL Assay Buffer that contains 0.5 M sodium acetate (pH 4.5) (Nakalai tesque, 31137-25): 100 mM p-nitrophenyl α-D-Galactopyranoside Solution (Sigma N0877) = 2:1 (v/v) at 30 °C for 60 min, then terminated by adding 960 μL 1X Stop Solution (0.1 M sodium carbonate, Fujifilm Wako 195-01582). After OD410 was recorded, α-galactosidase units were calculated according to the protocol (Clontech, P3024-1).

SCRM-FAMA heterodimer = biological target: T2, SCRM-FAMA heterodimer (Arabidopsis thaliana, UniProt Q56YJ8); conditions: for a-galactosidase: yeast FAMA∆N+SCRM, individual replicates, listed as AYSJ929
T2 construct: truncated SPCH and FAMA proteins lacking their N-terminal domain were used in yeast; expressed in transfected cells; host or cells: yeast strain AH109
Method: as §1

SCRM-SPCH heterodimer = biological target: T3, SCRM-SPCH heterodimer (Arabidopsis thaliana, UniProt Q700C7); conditions: for a-galactosidase: yeast SPCH∆N+SCRM, individual replicates, listed as AYSJ929
T3 construct: truncated SPCH and FAMA proteins lacking their N-terminal domain were used in yeast; expressed in transfected cells; host or cells: yeast strain AH109
T3 sequence (Q700C7 98-364 limits assumed): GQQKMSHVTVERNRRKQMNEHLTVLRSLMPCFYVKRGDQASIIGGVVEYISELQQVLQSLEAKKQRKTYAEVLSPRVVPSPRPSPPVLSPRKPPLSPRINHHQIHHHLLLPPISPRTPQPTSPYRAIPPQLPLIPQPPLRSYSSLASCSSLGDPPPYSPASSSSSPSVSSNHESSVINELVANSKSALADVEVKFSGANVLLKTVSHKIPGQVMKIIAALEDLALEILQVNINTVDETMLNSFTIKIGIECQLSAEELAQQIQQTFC
Method: as §1

T2 sequence (Q56YJ8 190-414, one chain of several): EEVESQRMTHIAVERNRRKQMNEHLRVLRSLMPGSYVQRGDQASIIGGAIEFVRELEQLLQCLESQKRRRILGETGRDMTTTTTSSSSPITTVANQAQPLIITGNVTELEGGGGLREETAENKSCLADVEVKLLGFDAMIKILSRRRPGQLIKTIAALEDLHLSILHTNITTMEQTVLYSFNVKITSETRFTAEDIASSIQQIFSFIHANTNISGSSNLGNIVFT

With O=C1C(c2ccccc2)=NC(NS(=O)(=O)c2ccccc2)(c2ccccc2)N1S(=O)(=O)c1ccccc1 (stereo not drawn) [Stomidazolone] the “effect in quantitative α-galactosidase assay” value (SCRM-MUTE heterodimer; 0, 10, 50, 100 μM) was “inhibits these stomatal bHLH heterodimers in a dose-dependent manner”, the “effect on association in Y2H growth assay” value (“effect on association” for short) (SCRM-MUTE heterodimer; 50 μM, 1 mM 3-AT) was “diminishes” and the a-galactosidase (SCRM-MUTE heterodimer; 10 µM) was 6.11 milliunits /(ml x cell) and 7.57 milliunits /(ml x cell) and 6.75 milliunits /(ml x cell). The a-galactosidase (SCRM-MUTE heterodimer; 50 µM) was 4.46 milliunits /(ml x cell) and 5.23 milliunits /(ml x cell) and 6.35 milliunits /(ml x cell), the a-galactosidase (SCRM-MUTE heterodimer; 100 µM) was 5.40 milliunits /(ml x cell) and 3.71 milliunits /(ml x cell) and 5.42 milliunits /(ml x cell) and the “effect in quantitative α-galactosidase assay” value (SCRM-FAMA heterodimer; 0, 10, 50, 100 μM) was “inhibits these stomatal bHLH heterodimers in a dose-dependent manner”. For the same compound, the “effect on association” value (SCRM-FAMA heterodimer; 50 μM, 1 mM 3-AT, N-terminally truncated FAMA) was “diminishes”, the a-galactosidase (SCRM-FAMA heterodimer; 10 µM) was 9.32 milliunits /(ml x cell) and 7.38 milliunits /(ml x cell) and 8.74 milliunits /(ml x cell) and the a-galactosidase (SCRM-FAMA heterodimer; 50 µM) was 7.60 milliunits /(ml x cell) and 6.41 milliunits /(ml x cell) and 6.17 milliunits /(ml x cell). For the same compound, the a-galactosidase (SCRM-FAMA heterodimer; 100 µM) was 5.72 milliunits /(ml x cell) and 5.36 milliunits /(ml x cell) and 4.71 milliunits /(ml x cell), the “effect in quantitative α-galactosidase assay” value (SCRM-SPCH heterodimer; 0, 10, 50, 100 μM) was “slightly less impact” and the “effect on association” value (SCRM-SPCH heterodimer; 50 μM, 1 mM 3-AT, N-terminally truncated SPCH) was “diminishes”. The a-galactosidase (SCRM-SPCH heterodimer; 10 µM) was 5.51 milliunits /(ml x cell) and 5.69 milliunits /(ml x cell) and 5.47 milliunits /(ml x cell), the a-galactosidase (SCRM-SPCH heterodimer; 50 µM) was 5.02 milliunits /(ml x cell) and 5.49 milliunits /(ml x cell) and 5.63 milliunits /(ml x cell) and the a-galactosidase (SCRM-SPCH heterodimer; 100 µM) was 5.62 milliunits /(ml x cell) and 5.13 milliunits /(ml x cell).
